Laboratory results reported in ChEMBL document CHEMBL1201862, “PubChem BioAssay data set” (2004).
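Growth conditions: 96-well plates. Treatment: test compound, 48 hours, 5 concentrations. Analysis: linear interpolation between bracketing concentrations; unreached endpoints set to highest concentration. Abbreviation: GI50, concentration required for 50% inhibition of growth.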 Active and inactive are the calls of the source. Cut-off read from the data, not from the text of the source: active = GI50 up to about 1.1 µM and inactive = higher.

Assays:
Assay in all cases: growth of human tumour cells (NCI), 48 h
A498 = system: A498
CCRF-CEM = system: CCRF-CEM
COLO 205 = system: COLO 205
EKVX = system: EKVX
HCT-116 = system: HCT-116
HOP-62 = system: HOP-62
HOP-92 = system: HOP-92
HT-29 = system: HT-29
LOX IMVI = system: LOX IMVI
M14 = system: M14
MDA-MB-231 = system: MDA-MB-231
MOLT-4 = system: MOLT-4
NCI-H226 = system: NCI-H226
NCI-H522 = system: NCI-H522
PC-3 = system: PC-3
RPMI-8226 = system: RPMI-8226
SK-MEL-2 = system: SK-MEL-2
SNB-19 = system: SNB-19
SR = system: SR
UACC-62 = system: UACC-62

Measured: GI50

O=C1OCC=C1COC1OC(CO)C(O)C(O)C1O (stereo not given)
inactive: A498 > 100 µM | CCRF-CEM 30.5 µM | COLO 205 > 100 µM | EKVX > 100 µM | HCT-116 > 100 µM | HOP-62 > 100 µM | HOP-92 > 100 µM | HT-29 > 100 µM | LOX IMVI > 100 µM | M14 > 100 µM | MDA-MB-231 > 100 µM | MOLT-4 > 100 µM | NCI-H226 > 100 µM | NCI-H522 17.2 µM | PC-3 > 100 µM | RPMI-8226 > 100 µM | SK-MEL-2 > 100 µM | SNB-19 > 100 µM | SR 36.2 µM

Cc1cc(S(=O)(=O)NC2=NCc3nc4ccccc4n32)c(S)cc1Cl
inactive: A498 26.9 µM | CCRF-CEM 31.6 µM | COLO 205 19.4 µM | EKVX 29.3 µM | HCT-116 18.3 µM | HOP-92 18.7 µM | LOX IMVI 18.4 µM | M14 23.7 µM | MDA-MB-231 23.5 µM | MOLT-4 19.6 µM | NCI-H226 20 µM | NCI-H522 34.9 µM | PC-3 22.2 µM | RPMI-8226 20.3 µM | SK-MEL-2 13.5 µM | SNB-19 32.3 µM | SR 20.9 µM | UACC-62 17.1 µM

CCOC(=O)c1csc(NC(=O)CN2CCCC2)n1
inactive: A498 > 100 µM | CCRF-CEM > 100 µM | COLO 205 > 100 µM | EKVX > 100 µM | HOP-62 > 100 µM | HOP-92 > 100 µM | HT-29 > 100 µM | LOX IMVI > 100 µM | M14 > 100 µM | MDA-MB-231 > 100 µM | MOLT-4 > 100 µM | NCI-H226 > 100 µM | PC-3 > 100 µM | RPMI-8226 > 100 µM | SK-MEL-2 > 100 µM | SNB-19 > 100 µM | SR > 100 µM | UACC-62 > 100 µM

O=C1c2cc3c(cc2CC12Cc1ccc4c(c1C2=O)CCC4)CCCC3 (stereo not given)
inactive: A498 > 100 µM | CCRF-CEM > 100 µM | EKVX > 100 µM | HCT-116 > 100 µM | HOP-62 > 100 µM | HOP-92 > 100 µM | HT-29 > 100 µM | LOX IMVI > 100 µM | M14 > 100 µM | MDA-MB-231 > 100 µM | MOLT-4 > 100 µM | NCI-H522 > 100 µM | PC-3 > 100 µM | RPMI-8226 > 100 µM | SK-MEL-2 > 100 µM | SNB-19 > 100 µM | SR 60 µM

COC(=O)C(NC(=O)OC(C)(C)C)P(=O)(OC)OC (stereo not given)
inactive: A498 > 100 µM | COLO 205 > 100 µM | EKVX > 100 µM | HCT-116 > 100 µM | HOP-62 > 100 µM | HOP-92 > 100 µM | HT-29 > 100 µM | LOX IMVI > 100 µM | M14 > 100 µM | MDA-MB-231 > 100 µM | MOLT-4 > 100 µM | NCI-H226 > 100 µM | NCI-H522 > 100 µM | PC-3 > 100 µM | RPMI-8226 > 100 µM | SK-MEL-2 > 100 µM | SNB-19 > 100 µM | SR > 100 µM | UACC-62 > 100 µM

c1ccc2c(c1)c1c(n2CCOCCCN2CCCCC2)CCCC1
inactive: A498 25.8 µM | COLO 205 20.4 µM | EKVX 17.1 µM | HOP-62 16.3 µM | HOP-92 22.7 µM | HT-29 12 µM | M14 27.9 µM | MDA-MB-231 20.5 µM | MOLT-4 4.36 µM | NCI-H226 16.3 µM | NCI-H522 15.3 µM | PC-3 13.1 µM | RPMI-8226 31.1 µM | SK-MEL-2 18.7 µM | SNB-19 27.5 µM | SR 15.2 µM

N#C[C@H](c1ccccn1)c1nc2ccccc2nc1Cl
inactive: A498 > 100 µM | CCRF-CEM > 100 µM | COLO 205 > 100 µM | EKVX > 100 µM | HCT-116 > 100 µM | HOP-62 > 100 µM | HOP-92 > 100 µM | HT-29 > 100 µM | M14 > 100 µM | MDA-MB-231 > 100 µM | MOLT-4 > 100 µM | NCI-H226 > 100 µM | NCI-H522 > 100 µM | PC-3 > 100 µM | RPMI-8226 > 100 µM | SK-MEL-2 > 100 µM | SNB-19 > 100 µM | SR > 100 µM | UACC-62 > 100 µM

Cc1cc2nc3c(C(O)CO)nn(-c4ccccc4)c3nc2cc1C (stereo not given)
inactive: A498 12.1 µM | EKVX 19.6 µM | HCT-116 15.3 µM | HOP-62 19.4 µM | HOP-92 15.5 µM | HT-29 15 µM | LOX IMVI 20.5 µM | M14 31.3 µM | MDA-MB-231 22.1 µM | MOLT-4 4.3 µM | NCI-H226 30.6 µM | NCI-H522 22.6 µM | PC-3 14.4 µM | RPMI-8226 6.21 µM | SK-MEL-2 21.4 µM | SNB-19 22.9 µM | SR 6.65 µM

C[N+](C)(C)/C=N\c1cccc2c1CCCC2
inactive: A498 > 100 µM | CCRF-CEM 50.7 µM | COLO 205 43.4 µM | EKVX > 100 µM | HCT-116 > 100 µM | HOP-62 > 100 µM | HOP-92 17.7 µM | HT-29 58.1 µM | LOX IMVI 55.3 µM | M14 > 100 µM | MDA-MB-231 > 100 µM | MOLT-4 > 100 µM | NCI-H226 58.2 µM | PC-3 39.8 µM | RPMI-8226 21.5 µM | SK-MEL-2 > 100 µM | SNB-19 > 100 µM | SR 16 µM | UACC-62 > 100 µM

CC(C)N(C)C(=O)C12C3C4C1C1C2C3C41C#N (stereo not given)
inactive: A498 > 100 µM | CCRF-CEM > 100 µM | COLO 205 > 100 µM | EKVX > 100 µM | HCT-116 > 100 µM | HOP-62 > 100 µM | HOP-92 > 100 µM | HT-29 > 100 µM | LOX IMVI > 100 µM | M14 > 100 µM | MDA-MB-231 > 100 µM | MOLT-4 > 100 µM | NCI-H522 > 100 µM | PC-3 > 100 µM | SK-MEL-2 > 100 µM | SNB-19 > 100 µM | SR > 100 µM | UACC-62 > 100 µM

CC(NNC(=O)c1cc[n+]([BH2-]C#N)cc1)c1ccc(Cl)c(Cl)c1 (stereo not given)
inactive: A498 33.7 µM | CCRF-CEM 37.1 µM | COLO 205 18.9 µM | EKVX 30.1 µM | HCT-116 32.1 µM | HOP-62 45 µM | HOP-92 20.6 µM | HT-29 17.5 µM | LOX IMVI 28.9 µM | M14 38.1 µM | MDA-MB-231 24.8 µM | MOLT-4 25.9 µM | NCI-H226 22.4 µM | NCI-H522 21.3 µM | PC-3 22.9 µM | RPMI-8226 33.5 µM | SK-MEL-2 32.2 µM | SNB-19 38.3 µM | SR 36 µM | UACC-62 29.7 µM
